{"source": "paper PMC5495782", "about": "“Designed α-sheet peptides suppress amyloid formation in Staphylococcus aureus biofilms” (NPJ Biofilms and Microbiomes, 2017)", "key": {"[1]": {"molecular_target": "T1, PSMα1 (Staphylococcus aureus, UniProt A9JX05)", "T1 construct": "synthetic PSMα1 (f[…], where f denotes formylation, Ontores Biotechnologies); purchased Ontores Biotechnologies; host or cells: chemical synthesis", "T1 sequence (A9JX05 whole entry, looked up)": "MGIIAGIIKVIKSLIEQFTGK", "experiment": "Biolayer interferometry, AP90 on sensor tip, PSMα1 in solution", "assay_type": "binding", "conditions": "PSMα1 α-sheet-rich (~48 h) vs α-helix-rich (~0 h) or β-sheet-rich (~150 h)", "experimental": "The binding was explored further using biolayer interferometry, which analyzes interference patterns based on adsorption of samples to a biosensor tip.\nAll biolayer interferometry experiments were performed on a BLItz biosensor system (ForteBio, Pall) using aminopropylsilane (APS) sensors. Sensors were hydrated in ddH2O + 22 μM ThT for 10 min prior to use; ThT was included to mirror the conditions of the corresponding aggregation curves."}, "[2]": {"test_system": "S. aureus MN8 biofilm amyloid", "experiment": "ThT fluorescence assay of amyloid in MN8 biofilms", "assay_type": "cell-based, Staphylococcus aureus MN8", "conditions": "24 h", "experimental": "(§1) Fig. 1 Screening of designed peptides for inhibition of amyloid formation in S. aureus biofilms. a Schematic of protocol for testing designed α-sheet peptides in S. aureus biofilm cultures with an illustration of the main-chain structure of the AP90 α-sheet design. b A panel of designed α-sheet peptides (AP90, AP401, and AP407), as well as random coil (RC) and β-hairpin controls (β), was tested against two S. aureus strains, MN8 (hashed bars) and SH1000 WT (white bars). […] Error bars in b and c represent the standard error of the mean for experiments performed in triplicate […]\n(§2) ThT, an established fluorescent label for amyloid fibrils,[43] was then added to each well at a concentration of 22 μM and biofilms were incubated statically for 4 h at room temperature. […] Plates were shaken at high speed for 1 min on a plate shaker to detach any remaining biofilm material and homogenize the samples, which were then transferred to a 96-well black-walled plate (Corning, TC-treated polystyrene) and ThT fluorescence was measured using an excitation wavelength of 438 nm and emission at 495 nm on a Perkin–Elmer Enspire plate reader (hereafter referred to as the plate reader). Fluorescence measurements were corrected by subtracting the background intensity of identical samples without ThT (in the case of the biofilms) or PSMα1 (for the in vitro measurements). […]"}, "[3]": {"test_system": "synthetic PSMα1", "experiment": "PSMα1 fibrillization assay with added inhibitors (ThT), water", "assay_type": "biochemical, Staphylococcus aureus", "conditions": "30 μM PSMα1, inhibitor at 4:1 molar ratio, 0.34% v/v DMSO in ddH2O, pH 5, 37 °C, ThT 22 μM; SEM of 3–6 replicates; vs peptide-free control", "excerpt": "(§3) Two different solvent conditions were used (0.34% DMSO in water, blue bars; LB medium + 0.34% DMSO, red bars) and aggregation was monitored by ThT fluorescence. Inhibition values for each peptide are reported as a percentage of the peptide-free control samples (0% inhibition). […] Fluorescence values in NaCl solution were quite high, so its curve is shown as an inset."}, "[4]": {"experiment": "CD spectroscopy of designed and control peptides", "assay_type": "physicochemical", "conditions": "100 µM (RC 30 µM), phosphate buffer (β and AP193: acetate buffer), room temperature", "method": "AP407 is a variant of AP90 with a disulfide bond. […] An unstructured random coil peptide (RC) and a β-sheet hairpin (β) are used as structural controls.[25], [26]\nCD spectra of RC, β, AP90, AP401, AP407, and AP193. Peptides were\ndissolved to a concentration of 100 µM (except for RC, which was 30 µM) in phosphate\nbuffer (except for β and AP193, which were in acetate buffer) and spectra were\nacquired at room temperature. […] MRE = mean residue ellipticity."}, "[5]": {"test_system": "S. aureus SH1000 WT biofilm amyloid", "experiment": "ThT fluorescence assay of amyloid in SH1000 WT biofilms", "assay_type": "cell-based, Staphylococcus aureus SH1000 WT", "conditions": "80 μM peptide, 24 h, 37 °C", "experimental": "as §1, §2"}, "[6]": {"test_system": "synthetic PSMα1", "experiment": "PSMα1 fibrillization assay with added inhibitors (ThT), LB medium", "assay_type": "biochemical, Staphylococcus aureus", "conditions": "LB medium + 0.34% DMSO, 37 °C", "excerpt": "as §3"}, "[7]": {"conditions": "ref [25]; cited from earlier work", "excerpt": "In addition, the structural properties of the peptide provide a benchmark, or spectroscopic signature, for α-sheet structure, which can be used to interpret spectra of amyloid species. The main α-sheet design used here is AP90 (Alternating Peptide #90, referred to as α1 previously, [26]), but we also tested several other designs (Supp ..."}, "[8]": {"test_system": "S. aureus biofilm", "experiment": "Crystal Violet staining of S. aureus biofilm (24 h batch growth)", "assay_type": "cell-based, Staphylococcus aureus", "conditions": "24 h batch growth in microtiter plates; 0.5% w/v Crystal Violet, absorbance at 550 nm; strain not stated; peptide 80 μM unless otherwise noted", "experimental": "We employed two S. aureus strains—SH1000 WT, a rsbU ^+ laboratory strain,[27] and MN8, a clinical strain isolated from the human urogenital tract[28] (Supplementary Table S2). First we confirmed that the cells formed biofilms by batch growth of the bacteria in microtiter plates through staining with Crystal Violet dye after 24 h. Application of our AP90 α-sheet design led to a 54% reduction in biofilm. As crystal violet is a crude measure of the extent of biofilm formation, we assessed amyloid fibril formation in the biofilms by adapting the conventional Thioflavin T (ThT) amyloid fibril assay for use in live cells. After 24 h of batch growth in microtiter plates, the biofilms were washed and incubated with ThT, and the resulting fluorescence signals served as a proxy for the extent of fibril formation in the EM (Fig. 1a). Next, we utilized this assay to test the α-sheet inhibitor designs and control peptides described above (sequences provided in Supplementary Table S1). […]\nThT, an established fluorescent label for amyloid fibrils,[43] was then added to each well at a concentration of 22 μM and biofilms were incubated statically for 4 h at room temperature. […] Fluorescence measurements were corrected by subtracting the background intensity of identical samples without ThT (in the case of the biofilms) or PSMα1 (for the in vitro measurements). […]"}, "[9]": {"test_system": "S. aureus SH1000 WT biofilm PSM amyloid fibrils", "experiment": "TEM of biofilms for extracellular fibril deposits", "assay_type": "cell-based, Staphylococcus aureus SH1000 WT", "conditions": "80 μM AP90, biofilms grown 24 h", "experimental": "To further investigate the ability of designed peptides to inhibit PSM amyloid formation, fluorescent (mCherry) S. aureus MN8 biofilms were grown in culture plates with glass bottom wells with or without α-sheet inhibitors. After 24 h at 37 °C the biofilms were gently rinsed with pipetted saline to remove unattached biomass and the remaining attached cells were fixed and imaged. A robust biofilm formed on the glass at the bottom of each well in LB medium alone (Fig. 2a); in contrast, there was significant disruption of the biofilm in the presence of the α-sheet compounds. […] Quantification of the images is presented in Supplementary Fig. S2. […] Addition of anti-α-sheet peptides triggered a significant reduction in PSM amyloid formation as measured by ThT fluorescence, which presumably weakened the S. aureus biofilms and their attachments by reducing the PSM amyloid fibril content of the EM. […]\nFig. 2 S. aureus biofilm structures become less robust when grown in the presence of designed peptide inhibitors. a S. aureus MN8 + mCherry biofilms were grown on glass substrates for 24 h and then cells were washed and fixed. […] For quantification of the images see Supplementary Fig. S2. b In S. aureus SH1000 WT biofilms grown in regular LB medium, PSM amyloid fibrils were visible as deposits in spaces between cells (left).\nImages were analyzed using Gwyddion software (Czech Metrology Institute)."}, "[10]": {"molecular_target": "T1, PSMα1", "assay_type": "binding", "conditions": "fresh (0 h), pre-incubated (48 h) and fibrillar (165 h) PSMα1; 2 h, 25 °C; GndHCl elution; NanoOrange fluorescence; six samples", "method": "To further probe the interactions between PSMα1 and the designed α-sheet peptides, we immobilized AP90 on agarose beads and applied solutions of either (a) fresh (completely solubilized), (b) pre-incubated, (allowed to aggregate as in Fig. 6a for 48 h corresponding to α-sheet oligomer species) or (c) fibrillar PSMα1. The bead mixtures were contained within a micro-spin column, so the system was treated as a packed bed reactor and a series of phosphate buffered saline (PBS) washes was used to remove unbound material. The PSMα1 content of each wash was measured with a fluorescence-based assay. PSMα1 bound to immobilized AP90 was eluted with high guanidinium hydrochloride (GndHCl).\nMeanwhile, PSMα1 samples were prepared as above (see “PSM fibrillization assay”) and incubated at 37 °C. […] FT and the washes (W1-W7) were analyzed with the NanoOrange® Protein Quantitation Kit (Thermo Fisher Scientific). […] This approach was necessary because elution of bound PSMα1 with GndHCl obscures protein quantification, and unfortunately, the inability to quantify the GndHCl bound fractions prevents confirmation of the mass balance. […]\nwere alternated with PBS washes (W8-W13). All eluents were then analyzed with the\nNanoOrange® Protein Quantitation Kit and fluorescence was used as an indicator of\nPSMα1 content in each eluent. Fluorescence measurements were normalized by the […]"}}, "note": "“Also recorded” adds a separate entry of the source. Where a SMILES comes first, the peptide text is derived from it. [ ]: non-standard residue; d: D form.", "data": [{"compound": "CSCC[C@H](NC(=O)[C@@H](CCCCN)NC(=O)[C@H](CC(C)C)NC(=O)[C@@H](CC(N)=O)NC(=O)[C@H](CCSC)NC(=O)[C@H](NC(=O)[C@H](Cc1c[nH]c2ccccc12)NC(=O)CNC(=O)[C@H](CO)NC(=O)[C@H](Cc1ccc(O)cc1)NC(=O)[C@H](CCC(=O)O)NC(=O)[C@H](CC(N)=O)NC(=O)[C@H](CCSC)NC(=O)[C@@H](Cc1c[nH]c2ccccc12)NC(=O)[C@H](CO)NC(=O)[C@@H](CC(C)C)NC(=O)[C@H](CC(N)=O)NC(=O)[C@@H](CCSC)NC(=O)[C@H](CCC(=O)O)NC(=O)CNC(=O)[C@H](CCCNC(=N)N)NC(C)=O)[C@H](C)O)C(=O)NCC(=O)N[C@@H](CCCNC(=N)N)C(N)=O", "note": "[AP90] (Ac-RGE[dM]N[dL]S[dW]MNEYSGW[dT]M[dN]L[dK]MGR-NH2)", "values": [{"measurement": "binding preference by KD, in words", "setting": "[1]", "result": "preferential binding between AP90 and α-sheet-rich PSMα1 (~48 h)"}, {"measurement": "effect on amyloid fibril formation (ThT), in words", "setting": "[2]; 80 μM peptide, 37 °C, effect particularly for the MN8 clinical isolate", "result": "significant reduction in amyloid fibril formation"}, {"measurement": "dose-response of biofilm amyloid content (ThT), in words", "setting": "[2]; increasing concentrations of AP90 in culture medium", "result": "fibril formation decreased in a dose-dependent manner; also recorded: significant decrease in EM amyloid content as the concentration of AP90 is increased"}, {"measurement": "inhibition of PSMα1 amyloid formation", "setting": "[3]", "result": "81 ± 5", "unit": "%"}, {"measurement": "CD spectrum (secondary structure)", "setting": "[4]", "result": "featureless spectrum, except for negative ellipticity in the so-called random coil region around 195–200 nm"}, {"measurement": "effect on amyloid fibril formation (ThT), in words", "setting": "[5]", "result": "significant reduction in amyloid fibril formation"}, {"measurement": "reduction of amyloid fibril formation (ThT)", "setting": "[5]; LB Lennox, ThT 22 μM, ex 438 / em 495 nm, vs peptide-free control, experiments in triplicate", "result": "~ 30%"}, {"measurement": "inhibition of PSMα1 fibril formation", "setting": "[6]; 30 μM PSMα1, 1:4 PSMα1:inhibitor, ThT 22 μM, SEM of 3–6 replicates, vs peptide-free control", "result": "73 ± 11", "unit": "%"}, {"measurement": "effect on PSMα1 fibril formation, in words", "setting": "[6]; 30 μM PSMα1, 1:4 PSMα1:peptide", "result": "inhibited fibril formation to nearly the same extent as in water; also recorded: inhibition by AP90 persisted"}, {"measurement": "secondary structure by CD, FTIR and 2D NMR", "setting": "[7]", "result": "does not adopt conventional secondary structure"}, {"measurement": "reduction in biofilm (Crystal Violet)", "setting": "[8]", "result": 54, "unit": "%"}, {"measurement": "extracellular PSM fibril deposits by TEM", "setting": "[9]", "result": "amyloid fibrils could not be found; also recorded: no extracellular fibril deposits were observed; also recorded: no amyloid fibrils were visible"}, {"measurement": "binding of PSMα1 samples to immobilized AP90", "setting": "[10]", "result": "more of the oligomer sample bound to the column than fresh or fibrillar material"}]}]}
